Measured values from the NIST ThermoML archive (doi:10.1016/j.jct.2016.10.023).

Assay: xn = mol fraction of the nth substance listed
Details: Constant-volume piezometry

CCCCC [pentane] + CCCO
Details	mass density [kg/m3]
553.15 K, 10864 kPa, Fluid (supercritical or subcritical phases), x1 = 0.9	311.86
553.15 K, 11147 kPa, Fluid (supercritical or subcritical phases), x1 = 0.2	390.67
553.15 K, 11334 kPa, Fluid (supercritical or subcritical phases), x1 = 0.8	314.89
553.15 K, 12137 kPa, Fluid (supercritical or subcritical phases), x1 = 0.9	333.53
553.15 K, 12374 kPa, Fluid (supercritical or subcritical phases), x1 = 0.8	333.35
553.15 K, 13032 kPa, Fluid (supercritical or subcritical phases), x1 = 0.2	418.04
553.15 K, 13118 kPa, Fluid (supercritical or subcritical phases), x1 = 0.8	344.85
553.15 K, 13951 kPa, Fluid (supercritical or subcritical phases), x1 = 0.9	353.59
553.15 K, 14669 kPa, Fluid (supercritical or subcritical phases), x1 = 0.8	361.39
553.15 K, 18451 kPa, Fluid (supercritical or subcritical phases), x1 = 0.2	469.6
553.15 K, 20863 kPa, Fluid (supercritical or subcritical phases), x1 = 0.9	406.66
553.15 K, 21933 kPa, Fluid (supercritical or subcritical phases), x1 = 0.8	417.56
553.15 K, 25921 kPa, Fluid (supercritical or subcritical phases), x1 = 0.2	508.72
553.15 K, 34331 kPa, Fluid (supercritical or subcritical phases), x1 = 0.8	465.95
553.15 K, 37494 kPa, Fluid (supercritical or subcritical phases), x1 = 0.2	546.06
563.15 K, 1429 kPa, Gas, x1 = 0.8	22.48
563.15 K, 1719 kPa, Gas, x1 = 0.2	24.88
563.15 K, 2200 kPa, Gas, x1 = 0.8	36.62
563.15 K, 3253 kPa, Gas, x1 = 0.8	58.3
563.15 K, 3644 kPa, Gas, x1 = 0.2	52.9
563.15 K, 3914 kPa, Fluid (supercritical or subcritical phases), x1 = 0.8	73.65
563.15 K, 4188 kPa, Fluid (supercritical or subcritical phases), x1 = 0.9	83.22
563.15 K, 4893 kPa, Fluid (supercritical or subcritical phases), x1 = 0.2	91.24
563.15 K, 5140 kPa, Fluid (supercritical or subcritical phases), x1 = 0.8	106.2
563.15 K, 5522 kPa, Fluid (supercritical or subcritical phases), x1 = 0.9	123.11
563.15 K, 5594 kPa, Fluid (supercritical or subcritical phases), x1 = 0.2	114.13
563.15 K, 5876 kPa, Fluid (supercritical or subcritical phases), x1 = 0.9	133.86
563.15 K, 6362 kPa, Fluid (supercritical or subcritical phases), x1 = 0.8	140.03
563.15 K, 6504 kPa, Fluid (supercritical or subcritical phases), x1 = 0.2	150.05
563.15 K, 6690 kPa, Fluid (supercritical or subcritical phases), x1 = 0.9	163.64
563.15 K, 6728 kPa, Fluid (supercritical or subcritical phases), x1 = 0.8	155.74
563.15 K, 6993 kPa, Fluid (supercritical or subcritical phases), x1 = 0.2	175.27
563.15 K, 7120 kPa, Fluid (supercritical or subcritical phases), x1 = 0.8	169.45
563.15 K, 7244 kPa, Fluid (supercritical or subcritical phases), x1 = 0.2	189.26
563.15 K, 7275 kPa, Fluid (supercritical or subcritical phases), x1 = 0.8	175.68
563.15 K, 7389 kPa, Fluid (supercritical or subcritical phases), x1 = 0.8	180.47
563.15 K, 7397 kPa, Fluid (supercritical or subcritical phases), x1 = 0.9	189.08
563.15 K, 7718 kPa, Fluid (supercritical or subcritical phases), x1 = 0.2	219.66
563.15 K, 7728 kPa, Fluid (supercritical or subcritical phases), x1 = 0.8	192.78
563.15 K, 7738 kPa, Fluid (supercritical or subcritical phases), x1 = 0.9	201.98
563.15 K, 8148 kPa, Fluid (supercritical or subcritical phases), x1 = 0.2	244.99
563.15 K, 8285 kPa, Fluid (supercritical or subcritical phases), x1 = 0.9	220.25
563.15 K, 8310 kPa, Fluid (supercritical or subcritical phases), x1 = 0.8	213.43
563.15 K, 8376 kPa, Fluid (supercritical or subcritical phases), x1 = 0.2	258.68
563.15 K, 8439 kPa, Fluid (supercritical or subcritical phases), x1 = 0.2	262.38
563.15 K, 8483 kPa, Fluid (supercritical or subcritical phases), x1 = 0.8	219.19
563.15 K, 8609 kPa, Fluid (supercritical or subcritical phases), x1 = 0.2	271.82
563.15 K, 8640 kPa, Fluid (supercritical or subcritical phases), x1 = 0.9	232.6
563.15 K, 8748 kPa, Fluid (supercritical or subcritical phases), x1 = 0.9	236.06
563.15 K, 8876 kPa, Fluid (supercritical or subcritical phases), x1 = 0.9	240.45
563.15 K, 8904 kPa, Fluid (supercritical or subcritical phases), x1 = 0.8	234.24
563.15 K, 8945 kPa, Fluid (supercritical or subcritical phases), x1 = 0.2	289.96
563.15 K, 8965 kPa, Fluid (supercritical or subcritical phases), x1 = 0.9	243.76
563.15 K, 9207 kPa, Fluid (supercritical or subcritical phases), x1 = 0.8	244.86
563.15 K, 9294 kPa, Fluid (supercritical or subcritical phases), x1 = 0.2	306.21
563.15 K, 9393 kPa, Fluid (supercritical or subcritical phases), x1 = 0.2	310.43
563.15 K, 9613 kPa, Fluid (supercritical or subcritical phases), x1 = 0.2	318.13
563.15 K, 9648 kPa, Fluid (supercritical or subcritical phases), x1 = 0.8	258.06
563.15 K, 10165 kPa, Fluid (supercritical or subcritical phases), x1 = 0.8	271.99
563.15 K, 10334 kPa, Fluid (supercritical or subcritical phases), x1 = 0.2	340.56
563.15 K, 10363 kPa, Fluid (supercritical or subcritical phases), x1 = 0.9	281.45
563.15 K, 10433 kPa, Fluid (supercritical or subcritical phases), x1 = 0.2	343.35
563.15 K, 10875 kPa, Fluid (supercritical or subcritical phases), x1 = 0.8	287.81
563.15 K, 11127 kPa, Fluid (supercritical or subcritical phases), x1 = 0.9	301.08
563.15 K, 11345 kPa, Fluid (supercritical or subcritical phases), x1 = 0.8	298.6
563.15 K, 11776 kPa, Fluid (supercritical or subcritical phases), x1 = 0.9	311.7
563.15 K, 11942 kPa, Fluid (supercritical or subcritical phases), x1 = 0.2	377.85
563.15 K, 12196 kPa, Fluid (supercritical or subcritical phases), x1 = 0.2	382.64
563.15 K, 12285 kPa, Fluid (supercritical or subcritical phases), x1 = 0.8	314.73
563.15 K, 12687 kPa, Fluid (supercritical or subcritical phases), x1 = 0.2	390.46
563.15 K, 13176 kPa, Fluid (supercritical or subcritical phases), x1 = 0.9	333.36
563.15 K, 13452 kPa, Fluid (supercritical or subcritical phases), x1 = 0.8	333.18
563.15 K, 14255 kPa, Fluid (supercritical or subcritical phases), x1 = 0.8	344.68
563.15 K, 14845 kPa, Fluid (supercritical or subcritical phases), x1 = 0.2	417.82
